Laboratory results taken from article PMC3940083 (International Journal for Parasitology: Drugs and Drug …, 2013).
Each block holds one compound with its values, some of them ahead of it.

Tests used:
Assay type in all cases: biochemical
[1] = biological target: T1, PfAdoMetDC (S-adenosyl-L-methionine decarboxylase) (Plasmodium falciparum, UniProt Q8IJ77); conditions: read-out: Ki
T1 sequence (Q8IJ77 1-72 limits assumed): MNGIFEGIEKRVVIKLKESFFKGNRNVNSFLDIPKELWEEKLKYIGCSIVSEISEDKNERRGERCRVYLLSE
T1 sequence (Q8IJ77 73-529 limits assumed): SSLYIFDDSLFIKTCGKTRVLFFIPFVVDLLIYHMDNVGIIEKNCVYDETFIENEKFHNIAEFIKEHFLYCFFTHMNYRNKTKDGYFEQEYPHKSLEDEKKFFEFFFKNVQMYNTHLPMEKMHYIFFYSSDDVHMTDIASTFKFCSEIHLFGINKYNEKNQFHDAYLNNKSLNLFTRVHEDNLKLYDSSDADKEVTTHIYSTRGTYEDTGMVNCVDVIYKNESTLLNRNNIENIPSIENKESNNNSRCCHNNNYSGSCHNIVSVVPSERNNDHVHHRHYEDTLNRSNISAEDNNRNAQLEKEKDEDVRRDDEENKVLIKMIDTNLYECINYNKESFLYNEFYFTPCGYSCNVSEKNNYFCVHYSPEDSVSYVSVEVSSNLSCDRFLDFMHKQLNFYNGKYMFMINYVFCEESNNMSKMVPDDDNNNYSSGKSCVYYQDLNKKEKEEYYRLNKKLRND

[2] = biological target: T2, PfAdoMetDC/ODC (S-adenosyl-L-methionine decarboxylase, AdoMetDC domain) (Plasmodium falciparum, UniProt Q8IJ77); conditions: read-out: Ki
T2 sequence (Q8IJ77 1-72): T1 sequence (Q8IJ77 1-72 limits assumed)
T2 sequence (Q8IJ77 73-1434): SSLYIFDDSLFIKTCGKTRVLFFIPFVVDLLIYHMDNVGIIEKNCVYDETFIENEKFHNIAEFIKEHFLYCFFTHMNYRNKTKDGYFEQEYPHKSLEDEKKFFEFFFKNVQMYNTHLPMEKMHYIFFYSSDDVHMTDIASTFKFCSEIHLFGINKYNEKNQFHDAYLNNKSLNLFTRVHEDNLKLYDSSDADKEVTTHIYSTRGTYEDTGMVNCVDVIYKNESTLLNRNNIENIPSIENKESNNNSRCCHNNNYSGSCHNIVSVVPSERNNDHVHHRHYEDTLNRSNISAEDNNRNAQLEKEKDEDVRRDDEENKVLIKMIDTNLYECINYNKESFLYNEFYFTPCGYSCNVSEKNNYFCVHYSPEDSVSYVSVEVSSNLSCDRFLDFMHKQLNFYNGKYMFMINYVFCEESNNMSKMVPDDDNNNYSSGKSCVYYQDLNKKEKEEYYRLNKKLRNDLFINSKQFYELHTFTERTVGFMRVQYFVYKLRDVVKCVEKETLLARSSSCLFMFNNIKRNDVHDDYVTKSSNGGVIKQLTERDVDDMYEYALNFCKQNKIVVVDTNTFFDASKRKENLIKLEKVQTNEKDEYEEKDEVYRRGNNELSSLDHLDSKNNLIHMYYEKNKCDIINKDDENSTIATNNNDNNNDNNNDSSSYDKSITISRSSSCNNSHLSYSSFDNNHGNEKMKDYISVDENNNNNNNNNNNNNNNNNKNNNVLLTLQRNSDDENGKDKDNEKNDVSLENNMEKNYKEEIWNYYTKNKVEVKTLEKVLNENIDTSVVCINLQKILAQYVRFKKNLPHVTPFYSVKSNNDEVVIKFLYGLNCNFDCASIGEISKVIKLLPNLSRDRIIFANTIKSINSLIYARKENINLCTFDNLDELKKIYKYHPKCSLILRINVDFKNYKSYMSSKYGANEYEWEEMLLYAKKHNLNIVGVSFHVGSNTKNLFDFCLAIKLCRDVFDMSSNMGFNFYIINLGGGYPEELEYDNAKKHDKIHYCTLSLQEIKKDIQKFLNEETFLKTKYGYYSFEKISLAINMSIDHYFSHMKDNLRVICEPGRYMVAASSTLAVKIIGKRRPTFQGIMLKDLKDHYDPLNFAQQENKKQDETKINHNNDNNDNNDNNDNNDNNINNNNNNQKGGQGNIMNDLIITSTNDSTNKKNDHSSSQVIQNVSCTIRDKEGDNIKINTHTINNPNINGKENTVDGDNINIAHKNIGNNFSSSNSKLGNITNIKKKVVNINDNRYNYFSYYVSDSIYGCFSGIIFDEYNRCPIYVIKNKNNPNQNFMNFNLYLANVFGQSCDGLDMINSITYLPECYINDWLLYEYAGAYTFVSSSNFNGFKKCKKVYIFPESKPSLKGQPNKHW

[3] = biological target: T1, PfAdoMetDC (S-adenosyl-L-methionine decarboxylase); assay: radiolabeled CO2 release assay, % inhibition at […]; conditions: read-out: % inhibition at 1 μM

KI (inactivation) [1]: 220 ± 90 nM
Compound: CN(C/C=C\CN)C[C@H]1O[C@@H](n2cnc3c(N)ncnc32)[C@H](O)[C@@H]1O [MDL73811, 5′-{[(Z)-4-amino-2-butenyl]methylamino}-5′-deoxyadenosine]

KI (inactivation) [2]: 180 ± 20 nM
Compound: Cc1nc2c(N)ncnc2n1[C@@H]1O[C@H](CN(C)C/C=C\CN)[C@@H](O)[C@H]1O [Genz-644131, 8-methyl-5′-{[(Z)-4-aminobut-2-enyl]methylamino}-5′-deoxyadenosine]

inhibition at 1 µM [3]: 57%
Compound: CN(C/C=C\CN)C[C@H]1O[C@@H](n2cnc3c(N)ncnc32)[C@@](O)(F)[C@@H]1O [Genz-644043, 2′-fluoro-5′-{[(Z)-4-amino-2-butenyl]methylamino}-5′-deoxyadenosine]
